Values joined by “and” are separate entries in the source; they are usually repeats but may differ in a detail not shown here. Equal entries are not always repeated.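 Growth conditions: 96-well plates. Treatment: test compound, 48 hours, 5 concentrations. Analysis: linear interpolation between bracketing concentrations; unreached endpoints set to highest concentration. The concentration for 50% growth inhibition is given as GI50. TGI denotes the concentration required for complete inhibition of growth.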
tested on: CAKI-1 renal; experiment: inhibition of tumour cell growth, NCI panel, 48 h

Compound	GI50	TGI
Nc1c(C(=O)Nc2ccccn2)sc2nc3c(cc12)C(=O)CCC3	0.697 µM	> 100 µM
COc1ccc2c(=O)oc3c(OC)cc(CCN(C)C)c4c(=O)oc1c2c34	17.3 µM and 8.46 µM	31.6 µM and 15.4 µM
COc1ccc(Cl)cc1NC(=O)c1ccc(NC2=C(Cl)C(=O)N(Cc3ccccc3)C2=O)cc1	> 100 µM	> 100 µM
Cc1cccc(NC2=C(Cl)C(=O)c3nc(C)ccc3C2=O)c1	1.06 µM	2.26 µM
COc1cc2c(cc1OCCCN1CCN(CCCOc3cc4c(cc3OC)C(=O)N3CC(F)(F)C[C@H]3C=N4)CC1)N=C[C@@H]1CC(F)(F)CN1C2=O	3.31 µM	13.5 µM
CCCCCCCCSC1=C(Cl)C(=O)C(OC)=C(OC)C1=O	–	34.7 µM
COC(=O)C1=CN(CC2=CC(=O)C(C)=CC2=O)C=C(C(=O)OC)C1c1ccccc1OC	16.7 µM	37.9 µM
COc1cccc2c1O/C(=C\c1ccc([N+](=O)[O-])s1)C2=O	> 100 µM	> 100 µM
COC(=O)/C=C/c1cc(OC(C)=O)c2c(c1)C(C(=O)OC)C(c1ccc(OC(C)=O)c(OC(C)=O)c1)O2 (stereo not drawn)	0.278 µM	94 µM
O=C(O)c1ccc(CNCc2ccccc2)cc1	–	> 100 µM
C=C(C)C(C1C=C(CCC(C=O)=C(C)C)C(=O)O1)C1(OC)C=C(C)C(=O)O1 (stereo not drawn)	> 100 µM	> 100 µM
CC(C)=CCC1=C(O)c2ccccc2C(=O)C1=O	–	> 100 µM
O=[N+]([O-])c1ccccc1N=Nc1c(O)[nH]c2c(Cl)cc(Cl)cc12	–	> 91.8 µM
NC(=S)N/N=C/c1ncccc1O	2.59 µM	> 56.7 µM and 63.9 µM
O=C(CC(=O)Nc1ccccc1)NNC(Sc1ccccc1)c1cc(N=Nc2ccc(Br)cc2)ccc1O (stereo not drawn)	–	> 10 µM
Cc1cc(C(=O)CSC(=S)SC(C)(C)C)ccc1Cl	–	> 100 µM
C=CC12CCN(CC1)C(C(O)c1ccnc3ccc(OC)cc13)C2 (stereo not drawn)	> 100 µM	> 100 µM
O=C(Nc1nc(-c2c[nH]c3ccccc23)cs1)c1n[nH]c(=O)c2ccccc12	2.44 µM	> 62.3 µM
CN(C)CCN1CCC(Cc2ccccc2)CC1	> 80 µM	> 80 µM
COc1cc2c3c(n(C)c(=O)c2cc1OC)-c1cc2c(cc1C3=O)OCO2	–	> 53.1 µM
COc1ccc(/C=C\c2cc(OC)c(OC)c(OC)c2)cc1OCC(=O)O	–	> 100 µM
CO[C@@H]1CC[C@]2(C)OC[C@H](C)[C@@H]3C[C@@H](C)[C@@H](OC(C)=O)[C@@H]4[C@H]3[C@@H]2O[C@H]4C[C@@]1(C)O	> 100 µM	> 100 µM
O=C(Nc1ncc(Cc2cccc(C(F)(F)F)c2)s1)c1ccc2c(c1)OCCO2	0.141 µM	> 45.9 µM
NC(=O)c1cc(I)ccc1NC(=O)/C=C/c1ccccc1	0.652 µM	24.8 µM
COc1ccc(CNc2c3ccccc3nc3ccccc23)cc1F	2.26 µM	8.35 µM
CNc1cc2oc(=O)cc(C)c2cc1C	–	> 100 µM
NCCCn1c2c(c3ccc([N+](=O)[O-])cc3c1=O)C(=O)c1cc(I)ccc1-2	0.0758 µM	1.98 µM

tested on: CCRF-CEM leukemia; experiment: inhibition of tumour cell growth, NCI panel, 48 h

Compound	GI50	TGI
Nc1c(C(=O)Nc2ccccn2)sc2nc3c(cc12)C(=O)CCC3	0.79 µM	> 100 µM
COc1ccc2c(=O)oc3c(OC)cc(CCN(C)C)c4c(=O)oc1c2c34	–	3.5 µM and 3.06 µM
COc1ccc(Cl)cc1NC(=O)c1ccc(NC2=C(Cl)C(=O)N(Cc3ccccc3)C2=O)cc1	3.99 µM	94.5 µM
Cc1cccc(NC2=C(Cl)C(=O)c3nc(C)ccc3C2=O)c1	2.29 µM	> 100 µM
COc1cc2c(cc1OCCCN1CCN(CCCOc3cc4c(cc3OC)C(=O)N3CC(F)(F)C[C@H]3C=N4)CC1)N=C[C@@H]1CC(F)(F)CN1C2=O	0.979 µM	8.51 µM
CCCCCCCCSC1=C(Cl)C(=O)C(OC)=C(OC)C1=O	–	> 100 µM
COC(=O)C1=CN(CC2=CC(=O)C(C)=CC2=O)C=C(C(=O)OC)C1c1ccccc1OC	5.48 µM	14.1 µM
COc1cccc2c1O/C(=C\c1ccc([N+](=O)[O-])s1)C2=O	1.25 µM	> 23.4 µM
COC(=O)/C=C/c1cc(OC(C)=O)c2c(c1)C(C(=O)OC)C(c1ccc(OC(C)=O)c(OC(C)=O)c1)O2 (stereo not drawn)	0.0404 µM	> 100 µM
O=C(O)c1ccc(CNCc2ccccc2)cc1	–	> 100 µM
C=C(C)C(C1C=C(CCC(C=O)=C(C)C)C(=O)O1)C1(OC)C=C(C)C(=O)O1 (stereo not drawn)	25.3 µM	> 100 µM
CC(C)=CCC1=C(O)c2ccccc2C(=O)C1=O	–	> 100 µM and 18.5 µM
O=[N+]([O-])c1ccccc1N=Nc1c(O)[nH]c2c(Cl)cc(Cl)cc12	–	> 100 µM
NC(=S)N/N=C/c1ncccc1O	1.15 µM	21.8 µM
O=C(CC(=O)Nc1ccccc1)NNC(Sc1ccccc1)c1cc(N=Nc2ccc(Br)cc2)ccc1O (stereo not drawn)	–	> 10 µM
C=CC12CCN(CC1)C(C(O)c1ccnc3ccc(OC)cc13)C2 (stereo not drawn)	> 100 µM	> 100 µM
O=C(Nc1nc(-c2c[nH]c3ccccc23)cs1)c1n[nH]c(=O)c2ccccc12	1.27 µM	98.8 µM
CN(C)CCN1CCC(Cc2ccccc2)CC1	> 80 µM	> 80 µM
COc1cc2c3c(n(C)c(=O)c2cc1OC)-c1cc2c(cc1C3=O)OCO2	–	22.5 µM
COc1ccc(/C=C\c2cc(OC)c(OC)c(OC)c2)cc1OCC(=O)O	–	> 100 µM
O=C(CNc1ccc(Cl)cc1Cl)Nn1c(-c2ccccc2)nc2ccccc2c1=O	–	16.3 µM
CO[C@@H]1CC[C@]2(C)OC[C@H](C)[C@@H]3C[C@@H](C)[C@@H](OC(C)=O)[C@@H]4[C@H]3[C@@H]2O[C@H]4C[C@@]1(C)O	> 100 µM	> 100 µM
CSC[C@H](NC(=O)COc1cccc2cnccc12)C(=O)NC(Cc1ccccc1)C(O)C(=O)N1CSC[C@H]1C(=O)NC(C)(C)C (stereo partly drawn)	–	> 100 µM
O=C(Nc1ncc(Cc2cccc(C(F)(F)F)c2)s1)c1ccc2c(c1)OCCO2	0.411 µM	> 100 µM
NC(=O)c1cc(I)ccc1NC(=O)/C=C/c1ccccc1	0.36 µM	–
COc1ccc(CNc2c3ccccc3nc3ccccc23)cc1F	3.81 µM	35.6 µM
CNc1cc2oc(=O)cc(C)c2cc1C	–	> 100 µM
NCCCn1c2c(c3ccc([N+](=O)[O-])cc3c1=O)C(=O)c1cc(I)ccc1-2	< 0.01 µM	0.279 µM

tested on: HL-60(TB) leukemia; experiment: inhibition of tumour cell growth, NCI panel, 48 h

Compound	GI50	TGI
Nc1c(C(=O)Nc2ccccn2)sc2nc3c(cc12)C(=O)CCC3	0.689 µM	5.27 µM
COc1ccc2c(=O)oc3c(OC)cc(CCN(C)C)c4c(=O)oc1c2c34	10.7 µM and 1.84 µM	26.5 µM and 10.2 µM
COc1ccc(Cl)cc1NC(=O)c1ccc(NC2=C(Cl)C(=O)N(Cc3ccccc3)C2=O)cc1	9.51 µM	55.3 µM
Cc1cccc(NC2=C(Cl)C(=O)c3nc(C)ccc3C2=O)c1	2.14 µM	5.8 µM
COc1cc2c(cc1OCCCN1CCN(CCCOc3cc4c(cc3OC)C(=O)N3CC(F)(F)C[C@H]3C=N4)CC1)N=C[C@@H]1CC(F)(F)CN1C2=O	1.18 µM	5.06 µM
CCCCCCCCSC1=C(Cl)C(=O)C(OC)=C(OC)C1=O	–	16.8 µM
COC(=O)C1=CN(CC2=CC(=O)C(C)=CC2=O)C=C(C(=O)OC)C1c1ccccc1OC	4.74 µM	18.5 µM
COc1cccc2c1O/C(=C\c1ccc([N+](=O)[O-])s1)C2=O	2.53 µM	> 100 µM
COC(=O)/C=C/c1cc(OC(C)=O)c2c(c1)C(C(=O)OC)C(c1ccc(OC(C)=O)c(OC(C)=O)c1)O2 (stereo not drawn)	0.0273 µM	0.114 µM
O=C(O)c1ccc(CNCc2ccccc2)cc1	–	> 100 µM
C=C(C)C(C1C=C(CCC(C=O)=C(C)C)C(=O)O1)C1(OC)C=C(C)C(=O)O1 (stereo not drawn)	> 100 µM	> 100 µM
CC(C)=CCC1=C(O)c2ccccc2C(=O)C1=O	–	> 100 µM
O=[N+]([O-])c1ccccc1N=Nc1c(O)[nH]c2c(Cl)cc(Cl)cc12	–	> 93 µM
NC(=S)N/N=C/c1ncccc1O	1.27 µM and 0.477 µM	3.6 µM and 3.59 µM

From PubChem BioAssay (NCI)
